Test results taken from patent publication US8951752B2, “N-demethyase genes and uses thereof” (priority 2011, dated 2015).

Assays:
[1] = test system: cell extracts prepared from P. putida CBB5; experiment: NADH-dependent N-demethylase activity of CBB5 cell extracts; format: biochemical, Pseudomonas putida CBB5; conditions: 0.5 mM substrate, 7.2 mg mL^−1 protein
[2] = target: T1, N-demethylase (Ndm: NdmA and NdmB subunits) (Pseudomonas putida, UniProt H9N289+H9N290); experiment: Methylxanthine N-demethylase activity assay with purified Ndm plus partially purified Ccr; format: biochemical, Pseudomonas putida CBB5; conditions: for Relative N-demethylase activity: relative to paraxanthine
T1 construct: lane 3, natural Ndm purified from P. putida CBB5; made in house; host or cells: purified from the natural strain Pseudomonas putida CBB5 (DEAE, Phenyl and Q Sepharose); not recombinant
T1 sequence (H9N289 1-351): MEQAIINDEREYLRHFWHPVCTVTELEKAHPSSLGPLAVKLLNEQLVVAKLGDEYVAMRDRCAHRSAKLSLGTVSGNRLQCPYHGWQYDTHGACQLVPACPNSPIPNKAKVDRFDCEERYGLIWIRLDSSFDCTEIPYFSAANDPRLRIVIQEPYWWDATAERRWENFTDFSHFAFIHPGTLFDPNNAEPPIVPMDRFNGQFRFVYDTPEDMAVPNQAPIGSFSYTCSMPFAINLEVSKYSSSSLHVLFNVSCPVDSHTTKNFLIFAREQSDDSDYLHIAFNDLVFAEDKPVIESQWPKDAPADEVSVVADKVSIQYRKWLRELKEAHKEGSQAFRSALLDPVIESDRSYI
T1 sequence (H9N290 1-355): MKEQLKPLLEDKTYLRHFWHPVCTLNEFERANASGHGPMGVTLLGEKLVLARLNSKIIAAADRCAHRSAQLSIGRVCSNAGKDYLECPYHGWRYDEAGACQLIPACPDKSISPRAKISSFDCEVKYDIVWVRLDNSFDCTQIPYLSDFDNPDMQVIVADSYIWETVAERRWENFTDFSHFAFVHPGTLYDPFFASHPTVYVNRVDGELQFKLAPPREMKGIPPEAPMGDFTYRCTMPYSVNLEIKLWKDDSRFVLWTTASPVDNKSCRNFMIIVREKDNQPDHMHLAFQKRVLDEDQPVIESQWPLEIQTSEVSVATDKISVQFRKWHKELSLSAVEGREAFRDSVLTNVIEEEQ
Description: Methylxanthine N-demethylase activity assay contained, in 1-mL total volume, 0.5 mM methylxanthine, 1 mM NADH, 50 μM Fe(NH4)2(SO4)2, and an appropriate amount of Ndm (0.08-7.5 mg protein, depending on purity of the protein) in 50 mM KPi buffer. Approximately 4 U of partially purified Ccr was added to reaction mixture when assaying Ndm in Phenyl Sepharose and Q Sepharose eluant-fractions (Ccr was not added to the enzyme reaction mixture when assaying Ndm activity in DEAE Sepharose eluant-fractions because Ccr co-eluted with Ndm). The reaction mixture was incubated at 30° C. with 300 rpm shaking on an incubating microplate shaker (VWR). Periodically, a small aliquot was sampled from the reaction mixture and mixed with equal volume of acetonitrile for quantifying concentrations of methylxanthines and N-demethylated products by HPLC. One unit of N-demethylase activity was defined as the consumption of one μmole methylxanthine per minute. When Ndm was coupled with the reductase and ferredoxin components of naphthalene dioxygenase of Pseudomonas sp. strain 9816 (Haigler & Gibson, 1990a; Haigler & Gibson, 1990b), 30 and 100 μg of the respective proteins were used. Spinach ferredoxin reductase and ferredoxin were also substituted for Ccr as described by Subramanian et al. (1979).
Determination of Kinetic Parameters. Apparent kinetic parameters of Ndm were determined by measuring the initial rate of disappearance (vo) of paraxanthine or 7-methylxanthine in 50 mM KPi buffer (pH 7.5) at 30° C. The paraxanthine and 7-methylxanthine concentrations ([S]) used in these experiments were from 20 to 500 μM. Substrates were incubated with Ndm and Ccr under standard conditions for 15 minutes. At 1, 5, 10, and 15 minutes, samples were removed from the reaction mixtures to quantitate substrate concentrations by HPLC. Plots of substrate concentrations against time were used to determine the initial rates of disappearance of substrates which were linear over 15 minutes. The apparent kinetic parameters were determined from Michaelis-Menten plots of Vo against [S] fitted with the equation
Determination of Oxygen Requirement. Oxygen consumption by Ndm during N-demethylation of paraxanthine was determined in a closed reaction vessel equipped with a Clarke-type oxygen electrode (Digitial Modell 0, Rank Brothers Ltd., Cambridge, England). The electrode was calibrated by using glucose oxidase (Sigma) and glucose for consumption of oxygen. Ndm activity assay was performed at 30° C. in a total volume of 1 ml of air-saturated 50 mM KPi buffer (pH 7.5) with 100 μM paraxanthine, 200 μM NADH, 50 μM Fe(NH4)2(SO4)2, 0.2 mg purified Ndm, and 4 U partially purified Ccr. The reaction was initiated by adding Ndm and partially purified Ccr after equilibration of all other reaction components for 3.3 minutes. After 13 minutes, a 100-μL aliquot was withdrawn from the reaction, immediately mixed with equal volume of acetonitrile to stop the enzyme reaction, and analyzed for N-demethylation product by HPLC. Background oxygen consumption, possibly due to NADH oxidase enzyme activity in the partially purified Ccr, was quantitated in control reactions containing all reaction components except paraxanthine.
Formaldehyde Determination. […] Twenty μL Nash reagent was added to 50 μl Ndm reaction sample plus 50 μl acetonitrile. This mixture was incubated at 51° C. for 12 minutes.

[3] = test system: NdmC

For `Cn1cnc2c1c(=O)[nH]c(=O)n2C` [Theobromine, 3,7-dimethylxanthine], which “degradation rate compared with paraxanthine” value [1] is on record?
The value was “significantly slower”.

What about the Products identified ([2]; same products at 500 and 200 μM substrate) of the same molecule?
The Products identified was 3- & 7-methylxanthine, and xanthine.

What about the “Relative N-demethylase activity” value ([2]; substrate conc. 200 μM) of the same molecule?
Its value is 80.2 ± 7.8.

What about the “Relative N-demethylase activity” value ([2]; substrate conc. 500 μM) of the same molecule?
Its value is 59.8 ± 1.9.

What about the “N-demethylation by NdmC fraction” value [3] of the same molecule?
Its value is “not N-demethylated”.
